# Data published in ChEMBL document CHEMBL1132752, “Structure-activity relationships of trans-3,5-disubstituted pyrrolidinylthio-1beta-methylcarbapenems. Part 2: J-111,225, J-114,870, J-114,871 and related compounds” (2000).
# How the values were obtained:
# Type in all cases: functional
# Pseudomonas aeruginosa [1] = assay: In vitro antimicrobial activity against ceftazidime resistant Pseudomonas aeruginosa AKR 17
# Rattus norvegicus = assay: Epileptogenicity at 200 ug in rat intracerebroventricular assay.
# Pseudomonas aeruginosa [2] = assay: In vitro antimicrobial activity against Pseudomonas aeruginosa AK 109
# Sus scrofa = organism: Sus scrofa; assay: Porcine renal DHP-1 susceptibility.
# Escherichia coli = assay: In vitro antimicrobial activity against Escherichia coli NIHJ JC2
# Staphylococcus aureus [3] = assay: In vitro antimicrobial activity against methicillin resistant Staphylococcus aureus pMS520
# Staphylococcus aureus [4] = assay: In vitro antimicrobial activity against Staphylococcus aureus 209P NIHJ JCI
# [5] = system: Staphylococcus epidermidis; assay: In vitro antimicrobial activity against methicillin resistant Staphylococcus epidermidis MB5181
Compound,MIC (Pseudomonas aeruginosa [1]) [µg/mL],Epileptogenicity (Rattus norvegicus),MIC (Pseudomonas aeruginosa [2]) [µg/mL],Susceptibility (Sus scrofa),MIC (Escherichia coli) [µg/mL],MIC (Staphylococcus aureus [3]) [µg/mL],MIC (Staphylococcus aureus [4]) [µg/mL],MIC [5] [µg/mL]
C[C@@H](O)[C@H]1C(=O)N2C(C(=O)O)=C(S[C@@H]3CN[C@@H](c4ccc(CSC(=N)N)cc4)C3)[C@H](C)[C@H]12,12.5,3,1.56,0.3,0.05,1.56,< 0.006,1.56
C[C@@H](O)[C@H]1C(=O)N2C(C(=O)O)=C(S[C@@H]3CN[C@@H](c4ccc(CNCCO)cc4)C3)[C@H](C)[C@H]12,6.25,–,0.78,0.31,0.05,1.56,< 0.006,1.56
C[C@@H](O)[C@H]1C(=O)N2C(C(=O)O)=C(S[C@@H]3CN[C@@H](c4ccc(C5(N)CC5)cc4)C3)[C@H](C)[C@H]12,6.25,0,3.13,0.32,0.025,1.56,< 0.006,1.56
C[C@@H](O)[C@H]1C(=O)N2C(C(=O)O)=C(S[C@@H]3CN[C@@H](c4ccc(CN)s4)C3)[C@H](C)[C@H]12,3.13,5,0.78,0.84,0.025,1.56,< 0.006,1.56
C[C@@H](O)[C@H]1C(=O)N2C(C(=O)O)=C(S[C@@H]3CN[C@@H](c4ccc([C@@H](N)CC(N)=O)cc4)C3)[C@H](C)[C@H]12,1.56,0,0.78,0.27,0.025,1.56,< 0.006,1.56
C/C(N)=N/Cc1ccc([C@H]2C[C@H](SC3=C(C(=O)O)N4C(=O)[C@H]([C@@H](C)O)[C@H]4[C@H]3C)CN2)cc1,6.25,–,1.56,0.25,0.05,1.56,< 0.006,0.78
C[C@@H](O)[C@H]1C(=O)N2C(C(=O)O)=C(S[C@@H]3CN[C@@H](c4ccc(CN)c5ccccc45)C3)[C@H](C)[C@H]12,> 25,5,6.25,0.16,0.05,1.56,< 0.006,0.78
C=CCC(N)c1ccc([C@H]2C[C@H](SC3=C(C(=O)O)N4C(=O)[C@H]([C@@H](C)O)[C@H]4[C@H]3C)CN2)cc1 (stereo partly drawn),12.5,0,1.56,0.29,0.025,1.56,< 0.006,3.13
C[C@@H](O)[C@H]1C(=O)N2C(C(=O)O)=C(SCCNC=N)C[C@H]12.O,3.13,5,1.56,1,0.1,50,< 0.006,50
CN[C@H](CC(C)C)C(=O)N[C@H]1C(=O)N[C@@H](CC(N)=O)C(=O)N[C@H]2C(=O)N[C@H]3C(=O)N[C@H](C(=O)N[C@H](C(=O)O)c4cc(O)cc(O)c4-c4cc3ccc4O)[C@H](O)c3ccc(c(Cl)c3)Oc3cc2cc(c3O[C@@H]2O[C@H](CO)[C@@H](O)[C@H](O)[C@H]2O[C@H]2C[C@](C)(N)[C@H](O)[C@H](C)O2)Oc2ccc(cc2Cl)[C@H]1O [VANCOMYCIN],> 100,–,> 100,–,> 100,0.78,0.39,–
C[C@@H](O)[C@H]1C(=O)N2C(C(=O)O)=C(S[C@@H]3CN[C@@H](c4ccc([C@H](N)CC(N)=O)cc4)C3)[C@H](C)[C@H]12,1.56,0,1.56,0.27,0.025,1.56,< 0.006,1.56
CNCc1ccc([C@H]2C[C@H](SC3=C(C(=O)O)N4C(=O)[C@H]([C@@H](C)O)[C@H]4[C@H]3C)CN2)o1,12.5,–,1.56,0.1,0.025,3.13,< 0.006,1.56
CCNCc1ccc([C@H]2C[C@H](SC3=C(C(=O)O)N4C(=O)[C@H]([C@@H](C)O)[C@H]4[C@H]3C)CN2)cc1,6.25,0,1.56,0.44,0.025,1.56,< 0.006,1.56
C[C@@H](O)[C@H]1C(=O)N2C(C(=O)O)=C(S[C@@H]3CN[C@@H](c4ccc(C(N)CCO)cc4)C3)[C@H](C)[C@H]12 (stereo partly drawn),12.5,0,1.56,–,0.05,3.13,< 0.006,6.25
C[C@@H](O)[C@H]1C(=O)N2C(C(=O)O)=C(S[C@@H]3CN[C@@H](c4ccc(C(N)C(N)=O)cc4)C3)[C@H](C)[C@H]12 (stereo partly drawn),6.25,0,1.56,0.32,0.025,3.13,< 0.006,3.13
CC(C)NCc1ccc([C@H]2C[C@H](SC3=C(C(=O)O)N4C(=O)[C@H]([C@@H](C)O)[C@H]4[C@H]3C)CN2)cc1,6.25,–,0.78,–,0.05,1.56,< 0.006,1.56
C[C@@H](O)[C@H]1C(=O)N2C(C(=O)O)=C(S[C@@H]3CN[C@@H](c4ccc(CN)cc4)C3)[C@H](C)[C@H]12,3.13,5,0.39,0.29,0.025,0.78,< 0.006,1.56
C[C@@H](O)[C@H]1C(=O)N2C(C(=O)O)=C(S[C@@H]3CN[C@@H](c4ccc(CNCC(N)=O)cc4)C3)[C@H](C)[C@H]12,6.25,–,1.56,0.31,0.025,3.13,< 0.006,1.56
CNCc1ccc([C@H]2C[C@H](SC3=C(C(=O)O)N4C(=O)[C@H]([C@@H](C)O)[C@H]4[C@H]3C)CN2)cc1,1.56,0,0.39,0.25,0.025,0.78,< 0.006,1.56
CCC(N)c1ccc([C@H]2C[C@H](SC3=C(C(=O)O)N4C(=O)[C@H]([C@@H](C)O)[C@H]4[C@H]3C)CN2)cc1 (stereo partly drawn),25,0,3.13,0.2,0.1,1.56,< 0.006,1.56
CCSCC(N)c1ccc([C@H]2C[C@H](SC3=C(C(=O)O)N4C(=O)[C@H]([C@@H](C)O)[C@H]4[C@H]3C)CN2)cc1 (stereo partly drawn),12.5,–,3.13,0.27,0.025,1.56,< 0.006,0.78
C[C@@H](O)[C@H]1C(=O)N2C(C(=O)O)=C(S[C@@H]3CN[C@@H](c4ccc(CN=C(N)N)cc4)C3)[C@H](C)[C@H]12,3.13,–,0.78,–,0.012,1.56,< 0.006,0.78
